26 molecules from publication PMC7838034 (Acta Pharmaceutica Sinica. B, 2020) can be followed below.

Like-named read-outs stand apart in the source and are kept apart here.

Assay [1] deals with recombinant BRD4(BD1 + BD2) (Homo sapiens, UniProt O60885). Kind of assay: BRD4 inhibition assay. The assay is classed as binding. To be noted: tested in duplicate, average; for inhibition at 1 µM: read-out: Inhibition rate BRD4, 1 μmol/L; for inhibition at 10 µM: read-out: Inhibition rate BRD4, 10 μmol/L.
For the next assay, the target named is PARP1 (Homo sapiens, UniProt P09874). Description: PARP1 inhibition assay. It counts as biochemical. The settings on record: tested in duplicate, average; for inhibition at 1 µM: read-out: Inhibition rate PARP1, 1 μmol/L; for inhibition at 10 µM: read-out: Inhibition rate PARP1, 10 μmol/L.
Sequence of PARP1 (P09874 whole entry): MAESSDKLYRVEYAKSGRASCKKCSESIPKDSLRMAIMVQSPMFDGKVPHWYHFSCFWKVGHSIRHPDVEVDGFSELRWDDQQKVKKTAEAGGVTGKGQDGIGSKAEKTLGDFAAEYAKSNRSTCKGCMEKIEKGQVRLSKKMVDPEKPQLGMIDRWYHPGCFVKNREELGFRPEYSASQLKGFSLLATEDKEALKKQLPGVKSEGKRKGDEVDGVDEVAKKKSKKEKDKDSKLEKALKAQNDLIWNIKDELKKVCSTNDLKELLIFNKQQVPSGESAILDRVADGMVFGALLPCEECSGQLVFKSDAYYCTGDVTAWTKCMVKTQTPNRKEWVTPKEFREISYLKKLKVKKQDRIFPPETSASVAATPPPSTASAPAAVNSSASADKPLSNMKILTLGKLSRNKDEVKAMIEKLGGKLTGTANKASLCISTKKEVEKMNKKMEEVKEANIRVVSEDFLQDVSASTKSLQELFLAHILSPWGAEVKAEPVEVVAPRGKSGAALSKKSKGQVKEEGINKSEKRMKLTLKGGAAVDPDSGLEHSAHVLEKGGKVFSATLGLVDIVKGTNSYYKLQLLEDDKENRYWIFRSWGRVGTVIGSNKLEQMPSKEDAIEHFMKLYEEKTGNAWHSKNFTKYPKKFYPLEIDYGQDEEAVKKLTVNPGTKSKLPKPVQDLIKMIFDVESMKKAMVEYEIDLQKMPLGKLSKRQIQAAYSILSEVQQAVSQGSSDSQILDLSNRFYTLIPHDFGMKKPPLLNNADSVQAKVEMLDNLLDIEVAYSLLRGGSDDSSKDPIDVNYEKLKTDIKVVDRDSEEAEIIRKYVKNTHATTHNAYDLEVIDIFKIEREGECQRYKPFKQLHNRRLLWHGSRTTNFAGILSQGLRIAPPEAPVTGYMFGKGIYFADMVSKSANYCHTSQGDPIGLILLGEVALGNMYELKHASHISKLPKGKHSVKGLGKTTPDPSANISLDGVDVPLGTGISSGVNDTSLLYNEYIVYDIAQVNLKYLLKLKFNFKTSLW
A further assay deals with MDA-MB-468 cells. Kind of assay: Cell viability assay. The assay is classed as cell-based, human. The settings on record: read-out: Anti-proliferative activity (IC50).
The mark [2] stands for this setting: MDA-MB-468 cells, cell viability assay for 24 h.

Usually IC50 stands for the concentration needed to halve the response being measured. As to “2-(2-(2-((3a,7a-Dihydro-1H-benzo[d][1,2,3]triazol-1-yl)oxy)ethoxy)-4-methoxyphenyl)-5,7-dimethoxyquinazolin-4(3H)-one [Compound 19q]”, the figures for the “Inhibition rate BRD4” value in assay [1] (1 μmol/L) and in assay [1] (10 μmol/L) were 11% and 80%, respectively. The “Inhibition rate PARP1” value on PARP1 (1 μmol/L) was 3%; at PARP1 (10 μmol/L) it was 2%. Further, in the assay with MDA-MB-468 cells (setting [2]), the IC50 was determined as 24.2 ± 2.2 µM.

Take “2-(4-((4-(Cyclopropanecarbonyl)piperazin-1-yl)methyl)phenyl)-5,7-dimethoxyquinazolin-4(3H)-one [Compound 11c]”: the entries for the “Inhibition rate BRD4” value in assay [1] (1 μmol/L) and in assay [1] (10 μmol/L) were 9% and 47%, respectively. Besides, the “Inhibition rate PARP1” value at PARP1 (1 μmol/L) is recorded as 8%; at PARP1 (10 μmol/L), 60%.

“2-(4-((4-(Cyclopropanecarbonyl)piperazin-1-yl)methyl)phenyl)quinazolin-4(3H)-one [Compound 11d]”: the “Inhibition rate BRD4” value is given as 4% in assay [1] (1 μmol/L) and 41% in assay [1] (10 μmol/L). The “Inhibition rate PARP1” value on PARP1 (1 μmol/L) is on record as 18%; on PARP1 (10 μmol/L), 71%.

For “2-(4-Chloro-2-(2-((3a,7a-dihydro-1H-benzo[d][1,2,3]triazol-1-yl)oxy)ethoxy)phenyl)-5,7-dimethoxyquinazolin-4(3H)-one [Compound 19r]”, the figures for the “Inhibition rate BRD4” value in assay [1] (1 μmol/L) and in assay [1] (10 μmol/L) were 17% and 77%, respectively. In addition, the “Inhibition rate PARP1” value on PARP1 (1 μmol/L) worked out at 4%; on PARP1 (10 μmol/L), 6%. In addition, the IC50 in the assay on MDA-MB-468 cells (setting [2]) is more than 30 µM.

As for `CNC(=O)c1ccc(-c2nc3cc(OC)cc(OC)c3c(=O)[nH]2)cc1` [Compound 5a, 4-(5,7-Dimethoxy-4-oxo-3,4-dihydroquinazolin-2-yl)-N-methylbenzamide], the inhibition at 1 µM is 1% in assay [1] and 4% on PARP1. In addition, the inhibition at 10 µM in assay [1] turned out to be 36%; on PARP1 it was 25%.

Turning to `CNC(=O)c1ccc(-c2nc3ccccc3c(=O)[nH]2)cc1` [Compound 5b, N-Methyl-4-(4-oxo-3,4-dihydroquinazolin-2-yl)benzamide], in assay [1], the inhibition at 1 µM turned out to be 0% and the inhibition at 10 µM is 22%. At PARP1, the inhibition at 1 µM amounted to 0% and the inhibition at 10 µM is 15%.

On to `COc1cc(OC)c2c(=O)[nH]c(-c3ccc(C(N)=O)cc3)nc2c1` [Compound 5c, 4-(5,7-Dimethoxy-4-oxo-3,4-dihydroquinazolin-2-yl)benzamide], for which the inhibition at 1 µM in assay [1] was found to be 1%; on PARP1 it was 0%. Besides, the inhibition at 10 µM was found to be 18% in assay [1] and 2% on PARP1.

For `NC(=O)c1ccc(-c2nc3ccccc3c(=O)[nH]2)cc1` [Compound 5d, 4-(4-Oxo-3,4-dihydroquinazolin-2-yl)benzamide], in assay [1], the inhibition at 1 µM is 2% and the inhibition at 10 µM came out at 19%. Further, on PARP1, the inhibition at 1 µM was determined as 0% and the inhibition at 10 µM was found to be 1%.

On to `COc1cc(OC)c2c(=O)[nH]c(-c3ccc(N4CCOCC4)cc3)nc2c1` [Compound 5e, 5,7-Dimethoxy-2-(4-morpholinophenyl)quinazolin-4(3H)-one], for which, in assay [1], the inhibition at 1 µM came out at 12% and the inhibition at 10 µM amounted to 70%. In addition, on PARP1, the inhibition at 1 µM was 2% and the inhibition at 10 µM was determined as 36%.

With `O=c1[nH]c(-c2ccc(N3CCOCC3)cc2)nc2ccccc12` [Compound 5f, 2-(4-Morpholinophenyl)quinazolin-4(3H)-one], in assay [1], the inhibition at 1 µM came out at 12% and the inhibition at 10 µM was found to be 55%. Further, on PARP1, the inhibition at 1 µM is 0% and the inhibition at 10 µM came to 29%.

On to `COc1cc(OC)c2c(=O)[nH]c(-c3ccc4cc[nH]c4c3)nc2c1` [Compound 5g, 2-(1H-Indol-6-yl)-5,7-dimethoxyquinazolin-4(3H)-one], for which, in assay [1], the inhibition at 1 µM was 3% and the inhibition at 10 µM was 13%. In addition, on PARP1, the inhibition at 1 µM stood at 9% and the inhibition at 10 µM was found to be 34%.

As to `O=c1[nH]c(-c2cccc3nc[nH]c23)nc2ccccc12` [Compound 5h, 2-(1H-Benzo[d]imidazole-7-yl)quinazolin-4(3H)-one], the inhibition at 1 µM in assay [1] worked out at 0%; on PARP1, 3%. Further, the inhibition at 10 µM in assay [1] worked out at 11%; at PARP1, 10%.

For the molecule `COc1cc(OC)c2c(=O)[nH]c(-c3c[nH]c4ncccc34)nc2c1` [Compound 5i, 5,7-Dimethoxy-2-(1H-pyrrolo[2,3-b]pyridin-3-yl)quinazolin-4(3H)-one], the inhibition at 1 µM at PARP1 turned out to be 8%.

Regarding `O=c1[nH]c(-c2c[nH]c3ncccc23)nc2ccccc12` [Compound 5j, 2-(1H-Pyrrolo[2,3-b]pyridin-3-yl)quinazolin-4(3H)-one], the inhibition at 1 µM in assay [1] was found to be 6%.

On to `COc1cc(OC)c2c(=O)[nH]c(-c3cccc4nc[nH]c34)nc2c1` [Compound 5k, 2-(1H-Benzo[d]imidazole-7-yl)-5,7-dimethoxyquinazolin-4(3H)-one], for which, in assay [1], the inhibition at 1 µM turned out to be 8% and the inhibition at 10 µM amounted to 42%. Also, on PARP1, the inhibition at 1 µM is 6% and the inhibition at 10 µM was 39%.

Consider `COc1cc(OC)c2c(=O)[nH]c(-c3cccc(C(=O)N4CCN(C(=O)C5CC5)CC4)c3)nc2c1` [Compound 11a, 2-(3-(4-(Cyclopropanecarbonyl)piperazine-1-carbonyl)phenyl)-5,7-dimethoxyquinazolin-4(3H)-one], for which the figures for the inhibition at 1 µM (in assay [1]; on PARP1) were 4% and 6%, respectively. The inhibition at 10 µM in assay [1] came out at 50%; on PARP1, 57%.

Regarding `O=C(c1cccc(-c2nc3ccccc3c(=O)[nH]2)c1)N1CCN(C(=O)C2CC2)CC1` [Compound 11b, 2-(3-(4-(Cyclopropanecarbonyl)piperazine-1-carbonyl)phenyl)quinazolin-4(3H)-one], in assay [1], the inhibition at 1 µM was 12% and the inhibition at 10 µM stood at 43%. At PARP1, the inhibition at 1 µM turned out to be 16% and the inhibition at 10 µM worked out at 70%.

Turning to `COc1cccc2nc(-c3cccc(C(=O)N4CCN(C(=O)C5CC5)CC4)c3)[nH]c(=O)c12` [Compound 11e, 2-(3-(4-(Cyclopropanecarbonyl)piperazine-1-carbonyl)phenyl)-5-methoxyquinazolin-4(3H)-one], in assay [1], the inhibition at 1 µM came out at 8% and the inhibition at 10 µM turned out to be 30%. Moreover, at PARP1, the inhibition at 1 µM worked out at 4% and the inhibition at 10 µM amounted to 46%.

As for `COc1cc(OC)c2c(=O)[nH]c(-c3ccc(C(=O)N4CCN(C(=O)C5CC5)CC4)cc3F)nc2c1` [Compound 15a, 2-(4-(4-(Cyclopropanecarbonyl)piperazine-1-carbonyl)-2-fluorophenyl)-5,7-dimethoxyquinazolin-4(3H)-one], in assay [1], the inhibition at 1 µM turned out to be 7% and the inhibition at 10 µM was 68%. Moreover, at PARP1, the inhibition at 1 µM amounted to 14% and the inhibition at 10 µM was 72%.

As to `O=C(c1ccc(-c2nc3ccccc3c(=O)[nH]2)c(F)c1)N1CCN(C(=O)C2CC2)CC1` [Compound 15b, 2-(4-(4-(Cyclopropanecarbonyl)piperazine-1-carbonyl)-2-fluorophenyl)quinazolin-4(3H)-one], in assay [1], the inhibition at 1 µM was 4% and the inhibition at 10 µM came to 53%. At PARP1, the inhibition at 1 µM is 6% and the inhibition at 10 µM is not above 87%.

In the case of `COc1cc(OC)c2c(=O)[nH]c(-c3ccc(C(=O)N4CCn5c(nnc5C(F)(F)F)C4)cc3F)nc2c1` [Compound 15c, 2-(2-Fluoro-4-(3-(trifluoromethyl)-5,6,7,8-tetrahydro-[1,2,4]triazolo[4,3-a]pyrazine-7-carbonyl)phenyl)-5,7-dimethoxyquinazolin-4(3H)-one], in assay [1], the inhibition at 1 µM stood at 5% and the inhibition at 10 µM was 30%. In addition, on PARP1, the inhibition at 1 µM was 11% and the inhibition at 10 µM was 55%.

Turning to `O=C(c1ccc(-c2nc3ccccc3c(=O)[nH]2)c(F)c1)N1CCn2c(nnc2C(F)(F)F)C1` [Compound 15d, 2-(2-Fluoro-4-(3-(trifluoromethyl)-5,6,7,8-tetrahydro-[1,2,4]triazolo[4,3-a]pyrazine-7-carbonyl)phenyl)quinazolin-4(3H)-one], in assay [1], the inhibition at 1 µM amounted to 3% and the inhibition at 10 µM worked out at 18%. Also, on PARP1, the inhibition at 10 µM came out at 60%.

Take `COc1cccc2nc(-c3ccc(C(=O)N4CCN(C(=O)C5CC5)CC4)cc3F)[nH]c(=O)c12` [Compound 15e, 2-(4-(4-(Cyclopropanecarbonyl)piperazine-1-carbonyl)-2-fluorophenyl)-5-methoxyquinazolin-4(3H)-one]: the inhibition at 1 µM in assay [1] is 9%; on PARP1, 7%.

`COc1cc(OC)c2c(=O)[nH]c(-c3cc(Cl)ccc3OCCOc3ccccc3C(N)=O)nc2c1` [Compound 19a, 2-(2-(4-Chloro-2-(5,7-dimethoxy-4-oxo-3,4-dihydroquinazolin-2-yl)phenoxy)ethoxy)benzamide]: the figures for the inhibition at 1 µM (in assay [1]; on PARP1) were 31% and 30%, respectively. In addition, the figures for the inhibition at 10 µM (in assay [1]; at PARP1) were 90% and 85%, respectively. Further, the IC50 in the assay on MDA-MB-468 cells (Homo sapiens, MDA-MB-468, 24 h) turned out to be 6 ± 0.9 µM.

Turning to `COc1cc(OC)c2c(=O)[nH]c(-c3ccc(OCOc4ccccc4C(N)=O)cc3)nc2c1` [Compound 19v, 2-((4-(5,7-Dimethoxy-4-oxo-3,4-dihydroquinazolin-2-yl)phenoxy)methoxy)benzamide], in assay [1], the inhibition at 1 µM stood at 29% and the inhibition at 10 µM came to 60%. At PARP1, the inhibition at 1 µM is 19% and the inhibition at 10 µM was 51%.

In the case of `O=C(c1cc(Cc2n[nH]c(=O)c3ccccc23)ccc1F)N1CCN(C(=O)C2CC2)CC1` [Olaparib, reference compound], in the assay on MDA-MB-468 cells (Homo sapiens, MDA-MB-468, 24 h), the IC50 amounted to 1.1 ± 1.4 µM.
